Source: patent EP0750511B1, “TREATING IN[…] THE ADMINISTRATION OF SPECIFIC SULFATASE ENZYMES AND/OR SULFATION INHIBITOR” (THE REGENTS OF THE UNIVERSITY OF CALIFORNIA, priority 1994, dated 1995)

Columns and labels:
GlyCAM-1 [1] = assay: [35S]-sulfate metabolic labelling of lymph node organ culture; precipitation of GlyCAM-1 with peptide antibody or lectins, scintillation counting; assay type: cell-based, mouse
Method: (§1) Slices of mouse lymph nodes were cultured with ^35S-sulfate in the presence and absence of 10 mM sodium chlorate. Detergent lysates were prepared and subjected to precipitation with several reagents that recognize GlyCAM-1. […] Only a background level (0.9% of control) of radioactivity was measured in the precipitate from the chlorate-treated culture.
(§2) Pooled mesenteric and peripheral lymph nodes from ICR mice (80 mg wet weight per condition) were incubated with (a) 250 µCi of [^35-S]-sodium sulfate (ICN) or (b) 250 µCi of [5,6 ^3-H]-L-fucose (ICN) in the presence or absence of 10 mM Na chlorate (Aldrich) in 0.5 ml of RPMI-1640 with 25 mM HEPES (1/10 sulfate concentration) for 4 h at 37°C. Tissue was extracted with 1.2 ml of 2% Triton X-100 (Boehringer Mannheim) in Dulbecco's PBS containing 1 mM PMSF (Sigma), 1% (v/v) aprotinin (Sigma), 10 µg/ml of pepstatin (Boehringer Mannheim) and 0.02% NaN3 (lysis buffer) as described previously^11. The lysates were boiled 3 min and the supernatants were precleared with 100 µl of Protein A Sepharose (Zymed) overnight. Aliquots of the precleared supernatants were added to 10 µl beads of LEC-IgG-Protein A Sepharose Beads (30 µg LEC-IgG per 10 µl beads), rabbit anti-peptide 2-Protein A beads (10 µl serum per 10 µl beads), rabbit preimmune serum-Protein A beads (10 µl serum per 10 µl beads), Limax flavus agglutinin-Sepharose beads (20 µg protein per 10 µl beads), or Aleuria aurantia agglutinin-Sepharose beads (10 µg protein per 10 µl beads), and incubated for 4 h at 4°C on a rocker. The beads were washed in the lysis buffer (6 times), and the 1/14 aliquots of beads were saved for direct counting by a scintillation counting and the remainder of beads were solubilized in Laemmli sample buffer (without beta mercaptoethanol) and run by on a 10% acrylamide gel (nonreducing condition) with fluorography employing ENHANCE (New England Nuclear). Molecular weight markers (BioRad) were phosphorylase B (97.4 K), BSA (66.2 K), ovalbumin (45 K), carbonic anhydrase (31 K), soybean trypsin inhibitor (21.5 K). LEC-IgG and antiserum were coated on Protein A-Sepharose beads by rocking overnight at 4°C. Lectin beads were prepared by coupling Limax agglutinin (Calbiochem) and AAA (Boehringer Mannheim) to CNBr-activated Sepharose 4B (Sigman). Miller, R., Meth. Enzymol. 138:527-536 (1987).
Inhibition of GlyCAM-1 sulfation eliminates its interaction and/or binding with L-selectin. This conclusion was reached when aliquots of the same precipitates of Example 1, labeled with (a) [^35-S]-sulfate or (b) [^3-H]-fucose in the presence (dark bars) or absence (cross-hatched bars) of chlorate were subjected to scintillation counting. The percents shown in a given panel (a) (not shown) indicate the percent counts obtained in the presence of chlorate as compared to the absence of chlorate. The values for anti-peptide 2, Limax, and AAA were essentially the same, reflecting the overall reduction in sulfation. In an independent experiment, the corresponding values were: 6% (for LEC-IgG), 35.6% (for anti-peptide 2), 35.3% (for Limax).

L-selectin = assay: Precipitation of metabolically labelled GlyCAM-1 from lymph node cultures with L-selectin chimera (LEC-IgG); assay type: cell-based
Method: as §1
(§3) To determine directly whether the fucosylation of GlyCAM-1 was affected by chlorate, ^3H-fucose was employed as a metabolic precursor. […] However, while LEC-IgG precipitated GlyCAM-1 in the control culture, LEC-IgG precipitated only a background level of counts (7% of control) from the chlorate-treated culture and there was no detectable GlyCAM-1.
(§4) To determine what effect chlorate had on the synthesis of the protein core of GlyCAM-1, we employed ^3H-threonine as a metabolic label. […] With or without chlorate treatment, two antibodies against the core protein of GlyCAM-1 precipitated broad bands that ran at ≈50K.
as §2
(§5) Mouse lymph nodes were labeled with 750 µCi of L-[3-^3H] threonine (Amersham) in 0.5 ml of threonine free-1/10 sulfate concentration-RPMI 1640 containing 25 mM HEPES for 4 h at 37°C in the absence or the presence of 10 mM sodium chlorate. Detergent lysates were boiled, precleared and subjected to precipitation with the indicated reagent as described in Example 1. Conditioned media were precleared and precipitated in parallel. The bead-bound material was analyzed on SDS-PAGE under reducing conditions with fluorography. In the anti-peptide antibody lanes, the ≈50K component was compressed by the immunoglobulin heavy chain.

GlyCAM-1 [2] = assay: [3H]-fucose metabolic labelling of lymph node organ culture (fucosylation of GlyCAM-1); assay type: cell-based, mouse
Method: as §3
Pooled mesenteric and peripheral lymph nodes from ICR mice (80 mg wet weight per condition) were incubated with (a) 250 µCi of [^35-S]-sodium sulfate (ICN) or (b) 250 µCi of [5,6 ^3-H]-L-fucose (ICN) in the presence or absence of 10 mM Na chlorate (Aldrich) in 0.5 ml of RPMI-1640 with 25 mM HEPES (1/10 sulfate concentration) for 4 h at 37°C. Tissue was extracted with 1.2 ml of 2% Triton X-100 (Boehringer Mannheim) in Dulbecco's PBS containing 1 mM PMSF (Sigma), 1% (v/v) aprotinin (Sigma), 10 µg/ml of pepstatin (Boehringer Mannheim) and 0.02% NaN3 (lysis buffer) as described previously^11. The lysates were boiled 3 min and the supernatants were precleared with 100 µl of Protein A Sepharose (Zymed) overnight. […]

GlyCAM-1 [3] = assay: [3H]-threonine metabolic labelling of lymph nodes (synthesis of protein core); assay type: cell-based, mouse; conditions: presence of chlorate
Method: as §4, §5

CD34/Sgp90 = assay: Interaction of CD34/Sgp90 with L-selectin after inhibition of its sulfation; assay type: cell-based; conditions: sulfation inhibited by chlorate treatment
From the text: The complete loss of reactivity with LEC-IgG establishes the importance of sulfation for binding. […] CD34/Sgp90 is also a sulfated ligand of L-selectin.

GlyCAM-1 [4] = assay: Label incorporation into GlyCAM-1 immunoprecipitated (CAM02 Ab) from conditioned medium of lymph node organ culture; assay type: cell-based, mouse
Method: (^3H-Gal)-labeled GlyCAM-1 was produced in mouse lymph node organ cultures as described in Examples 1-4 above. Undersulfated GlyCAM was generated by organ culture of murine lymph nodes in medium containing 10 mM Na-chlorate, a known inhibitor of sulfation. GlyCAM-1 was isolated from the conditioned media by immunoprecipitation with an antibody to a peptide sequence in the core protein of GlyCAM-1 (CAM02 Ab), as described in Examples 1-4 above. […] Desialylation of GlyCAM-1 was accomplished in all cases by treatment with Arthrobacter ureafacens sialidase (1.75 units/ml) in 120 mM Na acetate, pH 5.5 (18 h 37°C).

[5] = chlorate 10 mM in organ cultures of lymph nodes

Compound: [O-][Cl+2]([O-])O [chlorate, sodium chlorate]
- activity at 10000 µM (GlyCAM-1 [1]; Mus musculus, [^35-S]-sulfate label, independent experiment, read-out: percent counts in the presence of chlorate as compared to the absence, Limax): 35.3%
- activity at 10000 µM (GlyCAM-1 [1]; Mus musculus, [^35-S]-sulfate label, independent experiment, read-out: percent counts in the presence of chlorate as compared to the absence, anti-peptide 2): 35.6%
- activity at 10000 µM (GlyCAM-1 [1]; Mus musculus, ^35S-sulfate label, 10 mM sodium chlorate, detergent lysates, scintillation counting, read-out: radioactivity immunoprecipitated by the peptide antibody): 12%
- activity at 10000 µM (GlyCAM-1 [1]; Mus musculus, ^35S-sulfate label, 10 mM sodium chlorate, detergent lysates, read-out: ^35S-sulfate precipitated by Aleuria aurentia lectin): 13.7%
- activity at 10000 µM (GlyCAM-1 [1]; Mus musculus, ^35S-sulfate label, 10 mM sodium chlorate, detergent lysates, read-out: ^35S-sulfate precipitated by Limax agglutinin): 11.4%
- inhibition at 10000 µM (GlyCAM-1 [1]; Mus musculus, chlorate 10 mM in organ cultures of lymph nodes, read-out: reduction of incorporation of ^35S-SO4 into GlyCAM and CD34): ~90%
- activity at 10000 µM (GlyCAM-1 [1]; Mus musculus, inferred from the ratio of counts precipitated by the peptide antibody, read-out: sulfate incorporation into GlyCAM-1): 10 to 15%
- Binding of GlyCAM to a fucose-specific lectin (Aleuria aurantia agglutinin) (GlyCAM-1 [1]; [5]): unchanged
- Binding of GlyCAM to a sialic acid specific lectin (Limax agglutinin) (GlyCAM-1 [1]; [5]): unchanged
- percent counts in the presence of chlorate as compared to the absence, LEC-IgG (L-selectin; [^35-S]-sulfate label, independent experiment, 10000 µM): 6%
- counts precipitated by LEC-IgG (L-selectin; ^3H-fucose label, chlorate-treated culture, 10000 µM): 7 % of control
- GlyCAM-1 component precipitated by LEC-IgG from conditioned medium (L-selectin; ^3H-threonine label, chlorate present during the culture): did not react with any components
- radioactivity in the LEC-IgG precipitate (L-selectin; ^35S-sulfate label, 10 mM sodium chlorate, detergent lysates): 0.9 % of control
- GlyCAM-1 band precipitated by LEC-IgG (SDS-PAGE) (L-selectin; ^35S-sulfate label, chlorate-treated culture, strong band in control): failed to precipitate a detectable GlyCAM-1 band
- binding to L-selectin (GlyCAM and CD34) (L-selectin; [5]): completely eliminated
- binding of LEC-IgG to GlyCAM (L-selectin; culture in chlorate): completely abrogated
- cpm precipitated by the peptide antibody (GlyCAM-1 [2]; ^3H-fucose label, detergent lysates, chlorate versus control cultures): approximately the same number of cpm
- level of fucosylation (incorporation of [^3H]-fucose into GlyCAM) (GlyCAM-1 [2]; presence of chlorate): not affected
- rate of synthesis of the protein core of GlyCAM or CD34 (GlyCAM-1 [3]): did not affect
- ability of CD34/Sgp90 to interact with L-selectin (CD34/Sgp90): drastically inhibited
- [^3H]-galactose activity incorporated by GlyCAM, presence versus absence of chlorate (GlyCAM-1 [4]; 10 mM Na-chlorate, 0.25 mCi input): about the same
- incorporation of [^35S]-sulfate into GlyCAM (GlyCAM-1 [4]; 10 mM Na-chlorate, 0.5 mCi input, control 1.75 x 10^6 cpm): 0.16 x 10^6 cpm
- activity at 10000 µM (GlyCAM-1 [4]; Mus musculus, 10 mM Na-chlorate, 0.5 mCi input, read-out: incorporation of [^35S]-sulfate into GlyCAM): 10%
- [^3H]-galactose activity incorporated by GlyCAM (GlyCAM-1 [4]; presence or absence of chlorate, 0.25 mCi input): 2 x 10^6 cpm
